Tests used:
Format in all cases: cell-based
[1] = system: A549 cell line; experiment: MTT cell proliferation assay, A549; details: Homo sapiens, 48 hours, read-out: half maximal inhibitory concentration (IC50)
Protocol: (§1) NSCLC cell lines A549, NCI-H460, NCI-H520 and normal lung cell line MRC5 were obtained from Bioresource Collection and Research Center (BCRC, Taiwan). A549 cell line was cultured with F12K medium (21127, GIBCO, Carlsbad, U.S.A.). Both NCI-H460 and NCI-H520 cell lines were cultured with RPMI1640 medium (23400, GIBCO, Carlsbad, U.S.A.). MRC5 cell line was culture with MEM medium (41500, GIBCO, Carlsbad, U.S.A.). All media mentioned above contained 10% FBS (10437, GIBCO, Carlsbad, U.S.A.). All cultures were maintained in an incubator (Thermo forma 370, Waltham, U.S.A.) with 5% CO2 at 37° C. Cells were seeded at 1×10^4 cells per well in a 24-well plate for 16 hours. After that, a sample such as the berberine solutions with different concentrations and the extract of C. chinensis was added into 24-well plate directly, and cultured at 37° C. for 24, 48, and 72 hours, respectively. Thiazolyl blue tetrazolium bromide (MTT, m5655, Sigma, St. Louis, U.S.A.) solution was prepared in a concentration of 5.5 mg/ml with phosphate buffered saline (PBS) filtered by 0.22 μm membrane. The MTT solution (50 μl) was added to the wells of 24-well plates with A549, NCI-H460, NCI-H520, and MRC5 cell lines cultured after 24, 48, and 72 hours. The plates were incubated at 37° C. for 2 hours and then moved out. The media of the wells were removed. […]

[2] = system: NCI-H460 cell line; experiment: MTT cell proliferation assay, NCI-H460; details: Homo sapiens, 48 hours, read-out: half maximal inhibitory concentration (IC50)
Protocol: as §1

[3] = system: NCI-H520 cell line; experiment: MTT cell proliferation assay, NCI-H520; details: Homo sapiens, 48 hours, read-out: half maximal inhibitory concentration (IC50)
Protocol: as §1

[4] = system: A549 cells; experiment: Side population analysis (Hoechst33342, flow cytometry); details: A549, dose of IC50, 48 hours
Protocol: A549 cells were seeded in the number of about 3×10^5 in 10 cm dish to give adequate number of cells for analysis. The cells were treated with the extract of C. chinensis and the berberine solution in the dose of IC50 for 48 hours. Then, the treated cells were harvested by typsinization and centrifugation. The harvested cells were re-suspended in the number of 1×10^6 cells/ml in culture medium containing 2% FBS. Hoechst33342 dye (5 μg/ml, Invitrogen, Carlsbad, U.S.A.) was added with or without reserpine (50 μM, Sigma, St. Louis, U.S.A.) as a blocking reagent. The cells were further incubated at 37° C. for 2 hours under frequently gentle vortex to ensure uniform staining, and then washed cells with PBS. PI staining (20 ng/ml) was used to determine the live/dead cells. In order to set up the fluorescence compensation, single staining and non-staining groups were prepared. The cell samples were filtered with nylon mesh (35 μm) to prevent cell aggregation. PI-positive dead cells were primary excluded to avoid false positive signals. Then, the Hoechst blue and red dot plotting was used to determine the side population. A gate of a side population was defined by the diminishing region of two samples groups, i.e. with or without reserpine. The percentages of the side population were further analyzed by Flowjo software (TreeStar, Ashland, U.S.A.).

IC50 [1]: ~7 µM
IC50 [2]: ~40 µM
IC50 [3]: ~20 µM
Compound: COc1ccc2cc3[n+](cc2c1OC)CCc1cc2c(cc1-3)OCO2 [berberine solution, berberine chloride]
side population (SP) [4]: considerably diminished

Source: US20150320738A1, “BERBERINE-CONTAINING PHARMACEUTICAL COMPOSITION FOR INHIBITING CANCER STEM CELL GROWTH OR CARCINOMA METASTASIS AND APPLICATION THEREOF” (National Taiwan Normal University, priority 2011, published 2015)
